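In this assay, cells in 96-well plates receive the compound at five concentrations for 48 hours. Endpoints are linearly interpolated between the surrounding concentrations. GI50 marks 50% less growth. TGI denotes the concentration required for complete inhibition of growth.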 *1 amine or outer side, *2 acyl side, *3 side chain or, on linkers, in order; H or OH if unused. Where a SMILES comes first, the peptide text is derived from it. Bridges are numbered along the chain shown (N, C = ends). Roman numbers before positions name the chains, in order. [ ]: non-standard residue; d: D form. Actinocin(9to1) = Cc1c2oc3c(C)ccc(C(=O)[*:1])c3nc-2c(C(=O)[*:2])c(N)c1=O; NMeV = CN[CH](C(=O)O)C(C)C; Sar = CNCC(=O)O
Key:
Assay in all cases: inhibition of tumour cell growth, NCI panel, 48 h
CCRF-CEM leukemia = test system: CCRF-CEM leukemia
HCT-116 colon = test system: HCT-116 colon
HS 578T breast = test system: HS 578T breast
HT29 colon = test system: HT29 colon
KM12 colon = test system: KM12 colon
M14 melanoma = test system: M14 melanoma
MDA-N = test system: MDA-N
NCI-H226 lung = test system: NCI-H226 lung
OVCAR-3 ovarian = test system: OVCAR-3 ovarian
SR leukemia = test system: SR leukemia
SK-MEL-5 melanoma = test system: SK-MEL-5 melanoma
T-47D breast = test system: T-47D breast

SMILES | TGI (CCRF-CEM leukemia) [µM] | TGI (HCT-116 colon) [µM] | TGI (HS 578T breast) [µM] | TGI (HT29 colon) [µM] | TGI (KM12 colon) [µM] | TGI (M14 melanoma) [µM] | TGI (MDA-N) [µM] | TGI (NCI-H226 lung) [µM] | TGI (OVCAR-3 ovarian) [µM] | TGI (SR leukemia) [µM] | TGI (SK-MEL-5 melanoma) [µM] | TGI (T-47D breast) [µM] | GI50 (HCT-116 colon) [µM] | GI50 (OVCAR-3 ovarian) [µM] | GI50 (SK-MEL-5 melanoma) [µM]
CCOC(=O)c1cc(-c2ccc(OC)cc2)c([N+](=O)[O-])n1C | > 10 | > 10 | > 10 | > 10 | > 10 | > 10 | > 10 | > 10 | > 10 | > 10 | – | – | – | – | –
CCN(CC)CCCNC(=O)c1cc(-c2nccn2C)nc2ccccc12 | > 100 | > 100 | – | > 100 | > 100 | > 100 | > 100 | > 100 | – | – | > 100 | > 100 | – | – | –
CCOC(=O)C12OC(OCC)(CC1(OCC)OCC)C1(CC1)C2=O (configuration not stated) | > 100 | > 100 | – | > 100 | > 100 | > 100 | > 100 | > 100 | > 100 | – | > 100 | – | – | – | –
N#Cc1nc(-c2cnccn2)oc1N | > 100 | > 100 | > 100 | > 100 | > 100 | > 100 | > 100 | – | – | > 100 | > 100 | – | – | – | –
COc1cc(-c2cccs2)sc1-c1cccs1 | > 100 | > 100 | – | 53.3 | > 100 | > 100 | – | > 100 | > 100 | 61.8 | > 100 | – | – | – | –
COCCOCOC(CCCCO)c1cc(C)c(O[Si](C)(C)C(C)(C)C)c(C)c1 (configuration not stated) | 18.1 | – | – | – | 18.6 | 23.1 | – | 10.3 | 19.2 | – | 12.8 | – | – | – | –
CON(C)C(=O)C(C)N(Cc1ccccc1)Cc1ccccc1 (configuration not stated) | > 100 | > 100 | > 100 | > 100 | > 100 | > 100 | > 100 | > 100 | > 100 | > 100 | > 100 | – | – | – | –
COc1cc2c(/C=C3/C(=O)Nc4cccc(Cl)c43)c(Cl)[nH]c2cc1C | 3.3 | 3.19 | 5.58 | 3.96 | 3.72 | 7.78 | – | 7.59 | 4.29 | 2.95 | 14.3 | 5.48 | – | – | –
CCCC/C=C/C=C/C=C/CCCCCCCC(=O)OCC(COC(=O)CCCCCCC/C=C/C1C=CC(CCCC)C(C(=O)O)C1C(=O)O)OC(=O)CCCCCCC/C=C/C=C/C=C/CCCC (configuration not stated) (tested in a mixture with another compound) | 34.2 | 30.7 | – | 35.3 | 34.6 | 29.7 | – | 35.8 | 38.3 | – | 31.1 | – | – | – | –
C=C1c2nc3ccccc3n2C=C(c2ccc(OC)cc2)N1c1ccc(OC)cc1 | > 100 | 74.4 | – | – | 44.9 | > 100 | > 100 | 43.1 | 32.2 | > 100 | 35.1 | – | – | – | –
Nc1nc(Cl)cc(OCC2(CO)CC=CC2)n1 | > 100 | > 100 | > 100 | > 100 | – | – | > 100 | > 100 | > 100 | > 100 | > 100 | – | – | – | –
O=C(Nc1c(O)[nH]c(=S)[nH]c1=O)c1ccccc1 | > 100 | > 100 | – | > 100 | > 100 | > 100 | – | > 100 | > 100 | > 100 | > 100 | – | – | – | –
O=c1cc(-c2ccc3c(c2)OCO3)[nH]c2cc3c(cc12)OCO3 | > 100 | > 100 | – | > 100 | > 100 | > 100 | – | > 100 | 43.2 | 52.1 | > 100 | – | 38 | 19.5 | 25.4
N#Cc1cccc(-n2[nH]c(=O)ccc2=O)c1 | > 100 | > 100 | – | > 100 | > 100 | > 100 | – | > 100 | > 100 | > 100 | > 100 | – | – | – | –
Cc1c2oc3c(C)ccc(C(=O)NC4C(=O)NC(C(C)C)C(=O)N5CCCC5C(=O)N(C)CC(=O)N(C)C(C(C)C)C(=O)OC4C)c3nc-2c(C(=O)NC2C(=O)NC(C(C)C)C(=O)N3CCCC3C(=O)N(C)CC(=O)N(C)C(C(C)C)C(=O)OC2C)c(N)c1=O (configuration not stated) (I: TVP[Sar][NMeV] / II: TVP[Sar][NMeV]; ester I:1-I:C, II:1-II:C; linker I:N-II:N via Actinocin(9to1); configuration not given here) | 0.0033 | > 1 | 0.00439 | 0.00207 | 0.019 | 0.0207 | 0.0094 | – | 0.00907 | – | 0.0153 | – | – | – | –
CC(=O)OCCOCNC(=S)N/N=C/c1ccc([N+](=O)[O-])o1 | > 100 | > 100 | – | > 100 | > 100 | > 100 | – | > 100 | > 100 | – | > 100 | – | – | – | –
